Assay results taken from patent US20220211796A1, “PEPTIDE ANTIBIOTICS AND METHODS OF USE THEREOF” (priority 2019, published 2022).
≈ marks a conversion by molar mass, not a printed value. Bridge positions count the residues as written; N and C are the ends. Square brackets hold non-standard residues; d marks the D form. Peptide text beside a SMILES is read from it.

Tests used:
Assay in all cases: microbe, parasite or virus in culture
[1] = system: low level vancomycin resistant E. faecium (vanB) ATCC 51299; conditions: Table 5; low level vancomycin resistant E. faecium ATCC 51299
Description: (§1) The L-peptides identified from five different phage display libraries were catalogued as described previously and selected sequences were synthesized in D-enantiomeric form by SPPS for further investigation in several biological assays.
(§2) MICs were determined according to a 96-well microdilution protocol outlined by the Clinical and Laboratory Standard Institute (CLSI) guideline with modifications for peptide antibiotics reported by Wiegand et al.^35 Two-fold serial peptide dilutions were performed to go from 2560 μg/ml to 5 μg/ml in0.2% BSA and 0.01% acetic acid buffer in 96-well polypropylene plates (COSTAR, #3879). Dilution of bacterial suspensions (1:200) of different bacterial strains that were grown until 0.5 McFarland standard were prepared to obtain a final inoculum concentration of 8×10^5 CFU/ml in Mueller-Hinton broth.

B. subtilis ATCC 6633 = system: B. subtilis ATCC 6633
Description: as §1, §2

S. aureus ATCC 6538 = system: S. aureus ATCC 6538
Description: as §1, §2

E. coli ATCC 25992 = system: E. coli ATCC 25992
Description: as §1, §2

E. faecalis ATCC 29121 = system: E. faecalis ATCC 29121
Description: as §1, §2

[2] = system: Methicillin-resistant S. aureus (MRSA) ATCC 43300
Description: as §1, §2

[3] = system: high level vancomycin resistant E. faecium (vanA) ATCC 51559
Description: as §1, §2

Structure (SMILES) | MIC VRE (vanB) [1] [µg/mL] | MIC B. subtilis (B. subtilis ATCC 6633; ATCC 6633) [µg/mL] | MIC S. aureus (S. aureus ATCC 6538; ATCC 6538) [µg/mL] | MIC E. coli (E. coli ATCC 25992; ATCC 25992) [µg/mL] | MIC E. faecalis (E. faecalis ATCC 29121; ATCC 29121) [µg/mL] | MIC MRSA ([2]; ATCC 43300) [µg/mL] | MIC VRE (vanA) ([3]; ATCC 51559) [µg/mL] | MIC B. subtilis (B. subtilis ATCC 6633; Table 5, B. subtilis ATCC 6633) [µg/mL] | MIC S. aureus (S. aureus ATCC 6538; Table 5, S. aureus ATCC 6538) [µg/mL] | MIC E. coli (E. coli ATCC 25992; Table 5, E. coli ATCC 25992) [µg/mL] | MIC E. faecalis (E. faecalis ATCC 29121; Table 5, E. faecalis ATCC 29121) [µg/mL] | MIC MRSA ([2]; Table 5, MRSA ATCC 43300) [µg/mL] | MIC VRE (vanA) ([3]; Table 5, high level vancomycin resistant E. faecium ATCC 51559) [µg/mL]
CC(C)C[C@@H](NC(=O)[C@@H](CC(N)=O)NC(=O)[C@@H](CO)NC(=O)CNC(=O)[C@H](N)C(C)C)C(=O)N[C@H](CCCNC(=N)N)C(=O)N[C@H](CC(C)C)C(=O)N[C@H](CC(C)C)C(=O)N[C@H](Cc1c[nH]cn1)C(=O)N[C@H](CCC(N)=O)C(=O)N[C@H](Cc1c[nH]c2ccccc12)C(=O)N[C@H](CCCCN)C(N)=O [P3, VGSNLRLLHQWK] (H-[dV]G[dS][dN][dL][dR][dL][dL][dH][dQ][dW][dK]-NH2) | >256 | 32 (≈ 22.1 µM) | 32 (≈ 22.1 µM) | >256 | 32 (≈ 22.1 µM) | 64 (≈ 44.1 µM) | >256 |  |  |  |  |  | 
CC(C)[C@@H](N)C(=O)N[C@H](Cc1c[nH]cn1)C(=O)N[C@H](Cc1c[nH]c2ccccc12)C(=O)N[C@H](CC(=O)O)C(=O)N[C@H](Cc1ccccc1)C(=O)N[C@H](CCCNC(=N)N)C(=O)N[C@H](CCC(N)=O)C(=O)N[C@H](Cc1c[nH]c2ccccc12)C(=O)N[C@H](Cc1c[nH]c2ccccc12)C(=O)N[C@H](CCC(N)=O)C(=O)N1CCC[C@@H]1C(=O)N[C@H](CO)C(N)=O [P4, VHWDFRQWWQPS] (H-[dV][dH][dW][dD][dF][dR][dQ][dW][dW][dQ][dP][dS]-NH2) | 128 (≈ 76.6 µM) | 32 (≈ 19.2 µM) | 32 (≈ 19.2 µM) | >256 | 32 (≈ 19.2 µM) | 64 (≈ 38.3 µM) | >256 |  |  |  |  |  | 
CC(C)C[C@@H](NC(=O)[C@H](NC(=O)[C@@H](Cc1ccc(O)cc1)NC(=O)[C@@H](CS)NC(=O)[C@@H](CS)NC(=O)[C@H](N)CCCCN)[C@H](C)O)C(=O)N1CCC[C@@H]1C(N)=O [P5, KCCYTLP] (H-[dK][dC][dC][dY][dT][dL][dP]-NH2) | >256 | 128 (≈ 155 µM) | 128 (≈ 155 µM) | >256 | >256 | >256 | >256 |  |  |  |  |  | 
CC(C)C[C@@H](NC(=O)[C@H](N)C(C)C)C(=O)N[C@@H](C(=O)N[C@H](CCCNC(=N)N)C(=O)N[C@H](CS)C(=O)N[C@H](CS)C(=O)NCC(N)=O)[C@H](C)O [P6, VLTRCCG] (H-[dV][dL][dT][dR][dC][dC]G-NH2) | >256 | 128 (≈ 171 µM) | 128 (≈ 171 µM) | >256 | >256 | >256 | >256 |  |  |  |  |  | 
CC(C)C[C@@H](NC(=O)[C@@H](Cc1ccccc1)NC(=O)CNC(=O)[C@H](N)[C@H](C)O)C(=O)N[C@@H](C(=O)N[C@H](CC(N)=O)C(=O)N[C@@H](C(N)=O)C(C)C)C(C)C [P7, TGFLVNV] (H-[dT]G[dF][dL][dV][dN][dV]-NH2) | >256 | 32 (≈ 42.8 µM) | 64 (≈ 85.6 µM) | >256 | >256 | >256 | >256 |  |  |  |  |  | 
CC[C@@H](C)[C@@H](NC(=O)[C@@H](Cc1ccc(O)cc1)NC(=O)[C@H](N)Cc1c[nH]cn1)C(=O)N[C@H](CC(=O)O)C(=O)N[C@H](Cc1ccccc1)C(=O)N[C@H](CCCNC(=N)N)C(=O)N[C@H](Cc1c[nH]c2ccccc12)C(N)=O [P8, HYIDFRW] (H-[dH][dY][dI][dD][dF][dR][dW]-NH2) | >256 | 32 (≈ 30.9 µM) |  | >256 | 64 (≈ 61.8 µM) | 64 (≈ 61.8 µM) | >256 |  |  |  |  |  | 
CC(C)C[C@H]1NC(=O)[C@H](N)CSSC[C@H](C(N)=O)NC(=O)[C@@H](Cc2c[nH]c3ccccc23)NC(=O)[C@@H](CCCCN)NC(=O)[C@@H](CCC(=O)O)NC(=O)CNC(=O)[C@@H](CC(C)C)NC(=O)[C@@H](CCCCN)NC1=O [P9, CLKLGEKWC] (H-[dC][dL][dK][dL]G[dE][dK][dW][dC]-NH2; disulfide 1-9) | >256 | 32 (≈ 29.7 µM) | 64 (≈ 59.5 µM) | >256 | 64 (≈ 59.5 µM) | 64 (≈ 59.5 µM) | >256 |  |  |  |  |  | 
CSCC[C@H]1NC(=O)[C@H]2CCCN2C(=O)[C@@H]([C@H](C)O)NC(=O)[C@@H](C)NC(=O)CNC(=O)[C@@H](CCCNC(=N)N)NC(=O)[C@H](N)CSSC[C@H](C(N)=O)NC(=O)[C@@H](CO)NC1=O [P10, CRGATPMSC] (H-[dC][dR]G[dA][dT][dP][dM][dS][dC]-NH2; disulfide 1-9) | >256 |  |  |  |  |  |  | 128 (≈ 139 µM) | 128 (≈ 139 µM) | >256 | 256 (≈ 278 µM) | 128 (≈ 139 µM) | >256
CC[C@@H](C)[C@H]1NC(=O)[C@@H](CO)NC(=O)[C@H](N)CSSC[C@H](C(N)=O)NC(=O)[C@@H](Cc2c[nH]cn2)NC(=O)[C@@H]([C@H](C)O)NC(=O)[C@@H](CC(C)C)NC(=O)[C@@H](CO)NC(=O)[C@@H](CO)NC1=O [P11, CSISSLTHC] (H-[dC][dS][dI][dS][dS][dL][dT][dH][dC]-NH2; disulfide 1-9) | 64 (≈ 67.6 µM) | 32 (≈ 33.8 µM) | 32 (≈ 33.8 µM) | >256 | 32 (≈ 33.8 µM) | 64 (≈ 67.6 µM) | >256 |  |  |  |  |  | 
CC(C)C[C@H]1NC(=O)[C@H](N)CSSC[C@H](C(N)=O)NC(=O)[C@@H]([C@H](C)O)NC(=O)[C@@H](C)NC(=O)CNC(=O)[C@@H]([C@H](C)O)NC(=O)[C@@H](CO)NC(=O)[C@@H](Cc2c[nH]c3ccccc23)NC1=O [P12, CLWSTGATC] (H-[dC][dL][dW][dS][dT]G[dA][dT][dC]-NH2; disulfide 1-9) | >256 | 64 (≈ 68.2 µM) | 64 (≈ 68.2 µM) | >256 | 128 (≈ 136 µM) | 64 (≈ 68.2 µM) | >256 |  |  |  |  |  | 
CC[C@@H](C)[C@H]1NC(=O)[C@@H](CC(N)=O)NC(=O)[C@@H](CC(=O)O)NC(=O)[C@H](N)CSSC[C@H](C(N)=O)NC(=O)[C@@H](C(C)C)NC(=O)[C@H]2CCCN2C(=O)[C@@H]([C@H](C)O)NC(=O)[C@@H](CCSC)NC1=O [P13, CDNIMTPVC] (H-[dC][dD][dN][dI][dM][dT][dP][dV][dC]-NH2; disulfide 1-9) | >256 | 64 (≈ 64.5 µM) | 64 (≈ 64.5 µM) | >256 | 128 (≈ 129 µM) | 64 (≈ 64.5 µM) | >256 |  |  |  |  |  | 
